The values that follow come from US7301024B2, “Crystalline forms of gatifloxacin and processes for preparation” (Teva Pharmaceutical Industries Ltd., priority 2002, dated 2007).

For data set [1] the following is noted: sesquihydrate compared with hemihydrate; cited from earlier work.
The conditions of data set [2]: compared with hemihydrate; cited from earlier work.
Data set [3] in a line: solid-state form after storage at 40° C. and 75% relative humidity, analyzed by XRD. To be noted: 3 months. It counts as physicochemical. The method, then: As used in connection with the present invention, x-ray diffraction refers to x-ray diffraction by the powder diffraction technique (PXRD). X-ray powder diffraction analysis was performed using a Scintag powder diffractometer with variable goniometer, a Cu source, and a solid state detector. A standard round aluminum sample holder with zero background quartz plate was used. Samples were scanned from 2° to 40° 2θ at 3° per minute. Reflections are reported as peak maxima in the Intensity vs. 2θ plots, and are subject to the normal experimental error (uncertainty). Wet samples were promptly analyzed “as is,” i.e., without drying or grinding prior to the analysis.
Gatifloxacin form CH2 can also be made by heating form Ω to between about 25° C. and about 50° C. at a relative humidity of about 60% to about 80%, preferably for at least about one month. Gatifloxacin so formed is a mixture of form Ω and form CH2.
4. Gatifloxacin form Ω (3 g) was heated to 40° C. at 75% of relative humidity for 3 months.

The conditions of data set [4]: compared with the other crystalline forms of U.S. Pat. No. 6,413,969; cited from earlier work.
The conditions of data set [5]: room temperature; compared with the other crystalline forms of U.S. Pat. No. 6,413,969; cited from earlier work.

On to `COc1c(N2CCNC(C)C2)c(F)cc2c(=O)c(C(=O)O)cn(C3CC3)c12` (racemic) [hemihydrate, (±)-1-cyclopropyl-6-fluoro-1,4-dihydro-8-methoxy-7-(3-methyl-1-piperazinyl)-4-oxo-3-quinolinecarboxylic acid], for which, in data set [1], the hygroscopicity result was “hygroscopic”.

Take `COc1c(N2CCNC(C)C2)c(F)cc2c(=O)c(C(=O)O)cn(C3CC3)c12` (racemic) [sesquihydrate, (±)-1-cyclopropyl-6-fluoro-1,4-dihydro-8-methoxy-7-(3-methyl-1-piperazinyl)-4-oxo-3-quinolinecarboxylic acid]: in data set [1], the hygroscopicity result was “less hygroscopic”. In data set [2], the stability in manufacturing entry was “more stable in manufacturing”.

`COc1c(N2CCNC(C)C2)c(F)cc2c(=O)c(C(=O)O)cn(C3CC3)c12` (racemic) [form Ω, (±)-1-cyclopropyl-6-fluoro-1,4-dihydro-8-methoxy-7-(3-methyl-1-piperazinyl)-4-oxo-3-quinolinecarboxylic acid]: in data set [3], the “crystalline form found by XRD after storage” value was “mixture of gatifloxacin form Ω and form CH2”.

On to `COc1c(N2CCNC(C)C2)c(F)cc2c(=O)c(C(=O)O)cn(C3CC3)c12` (racemic) [pentahydrate, (±)-1-cyclopropyl-6-fluoro-1,4-dihydro-8-methoxy-7-(3-methyl-1-piperazinyl)-4-oxo-3-quinolinecarboxylic acid], for which the thermodynamic stability entry in data set [4] is given as “most thermodynamically stable form”. In addition, the aqueous solubility result in data set [5] was “lowest”.
